Test results as given in BindingDB's records for patent US20250074891 (Anaxis Pharma, 2025).

What was measured:
Test in all cases: In Vitro Assay
[1] = target: Receptor-interacting serine/threonine-protein kinase 3 (Homo sapiens, UniProt Q9Y572)
Method: (§1) Kinase assays. For most assays, kinase-tagged T7 phage strains were grown in parallel in 24-well blocks in an E. coli host derived from the BL21 strain. E. coli were grown to log-phase and infected with T7 phage from a frozen stock (multiplicity of infection=0.4) and incubated with shaking at 32° C. until lysis (90-150 minutes).

[2] = target: T1, Receptor-interacting serine/threonine-protein kinase 1 (Homo sapiens, UniProt Q13546)
T1 sequence (Q13546 whole entry): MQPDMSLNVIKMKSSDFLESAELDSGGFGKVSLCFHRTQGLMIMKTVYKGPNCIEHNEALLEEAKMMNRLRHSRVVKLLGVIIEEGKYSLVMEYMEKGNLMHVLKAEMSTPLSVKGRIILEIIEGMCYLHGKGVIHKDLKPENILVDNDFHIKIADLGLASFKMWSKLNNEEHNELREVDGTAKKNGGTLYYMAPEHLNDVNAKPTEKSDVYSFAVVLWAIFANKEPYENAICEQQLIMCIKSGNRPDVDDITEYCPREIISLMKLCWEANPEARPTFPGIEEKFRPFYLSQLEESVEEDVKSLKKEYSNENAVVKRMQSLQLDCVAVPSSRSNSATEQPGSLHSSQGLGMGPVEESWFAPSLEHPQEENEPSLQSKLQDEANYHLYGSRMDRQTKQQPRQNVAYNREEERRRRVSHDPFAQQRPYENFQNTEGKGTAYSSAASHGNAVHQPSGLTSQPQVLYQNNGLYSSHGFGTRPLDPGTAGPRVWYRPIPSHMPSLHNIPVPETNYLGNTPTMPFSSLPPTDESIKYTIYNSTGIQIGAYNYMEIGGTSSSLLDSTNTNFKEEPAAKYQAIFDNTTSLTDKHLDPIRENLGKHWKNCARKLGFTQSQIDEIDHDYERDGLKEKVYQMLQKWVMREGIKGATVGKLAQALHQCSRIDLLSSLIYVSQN
Method: as §1

[3] = target: T2, Mixed lineage kinase domain-like protein (Homo sapiens, UniProt Q8NB16)
T2 sequence (Q8NB16 whole entry): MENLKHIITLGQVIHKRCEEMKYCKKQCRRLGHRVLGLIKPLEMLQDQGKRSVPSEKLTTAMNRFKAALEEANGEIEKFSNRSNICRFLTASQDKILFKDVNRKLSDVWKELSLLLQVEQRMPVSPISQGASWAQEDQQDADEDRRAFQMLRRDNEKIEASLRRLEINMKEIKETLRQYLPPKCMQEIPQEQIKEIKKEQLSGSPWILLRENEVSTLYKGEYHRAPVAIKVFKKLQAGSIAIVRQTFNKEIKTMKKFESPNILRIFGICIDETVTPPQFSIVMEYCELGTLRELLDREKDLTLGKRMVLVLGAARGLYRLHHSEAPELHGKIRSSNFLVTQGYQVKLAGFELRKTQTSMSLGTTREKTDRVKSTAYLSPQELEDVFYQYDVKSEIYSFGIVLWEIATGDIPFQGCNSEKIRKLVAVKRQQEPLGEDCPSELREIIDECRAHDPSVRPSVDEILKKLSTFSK
Method: as §1

Chain of Receptor-interacting serine/threonine-protein kinase 3 (Q9Y572 whole entry): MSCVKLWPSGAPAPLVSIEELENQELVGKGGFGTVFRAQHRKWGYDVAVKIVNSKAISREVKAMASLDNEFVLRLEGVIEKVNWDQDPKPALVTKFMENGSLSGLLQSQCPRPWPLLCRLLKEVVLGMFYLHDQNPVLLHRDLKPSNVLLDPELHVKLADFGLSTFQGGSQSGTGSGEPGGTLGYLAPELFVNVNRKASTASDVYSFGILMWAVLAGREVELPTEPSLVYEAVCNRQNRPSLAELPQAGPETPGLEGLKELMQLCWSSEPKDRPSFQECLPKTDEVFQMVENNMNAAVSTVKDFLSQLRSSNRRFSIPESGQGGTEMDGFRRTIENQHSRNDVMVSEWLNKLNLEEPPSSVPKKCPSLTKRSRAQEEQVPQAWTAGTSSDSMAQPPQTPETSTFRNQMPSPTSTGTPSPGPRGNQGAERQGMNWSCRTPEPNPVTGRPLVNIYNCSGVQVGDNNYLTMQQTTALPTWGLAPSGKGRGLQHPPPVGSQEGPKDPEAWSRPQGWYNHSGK

| Kd [1] [µM] | Kd [2] [µM] | Kd [3] | SMILES |
| --- | --- | --- | --- |
| > 30 | > 30 | in the range around 0.505 µM | NC(=O)c1c(-c2ccc(NS(=O)(=O)CC(F)(F)F)c(OCc3ccc(F)cc3)c2)n[nH]c1Nc1cccc(C(F)(F)F)n1 |
| > 30 | > 30 | < 0.01 µM | CCOc1nccc(Nc2[nH]nc(-c3ccc(NS(=O)(=O)CC)cc3)c2C(N)=O)n1 [US20250074891, Compound 98] |
| > 30 | > 30 | < 0.01 µM | C[C@H](Oc1cc(-c2n[nH]c(Nc3cc(C4CC4)on3)c2C(N)=O)ccc1NS(=O)(=O)C(F)F)c1ccc(F)cc1 [US20250074891, Compound 310] |
| > 30 | > 30 | < 0.01 µM | C[C@H](Oc1cc(-c2n[nH]c(Nc3cc(C4(C)CCOCC4)on3)c2C(N)=O)ccc1NS(=O)(=O)C(F)F)c1ccc(F)cc1 [US20250074891, Compound 301] |
| > 30 | > 30 | < 0.01 µM | CCS(=O)(=O)Nc1ccc(-c2n[nH]c(Nc3cnccn3)c2C(N)=O)cc1OC1CCCc2cc(F)ccc21 (stereo not given) [US20250074891, Compound 224] |
|  |  | < 0.01 µM | Cc1ncsc1-c1ccc(CNC(=O)[C@@H]2C[C@@H](O)CN2C(=O)[C@@H](NC(=O)CCCCOc2ccc(Nc3[nH]nc(-c4ccc(NS(=O)(=O)C(F)F)c(OCc5ccc(F)cc5)c4)c3C(N)=O)nc2)C(C)(C)C)cc1 [US20250074891, Compound 1025] |
|  | > 30 | < 0.01 µM | CCS(=O)(=O)Nc1ccc(-c2n[nH]c(Nc3cccc(C(F)F)n3)c2C(N)=O)cc1 [US20250074891, Compound 92] |
| > 30 | > 30 |  | NC(=O)c1c(-c2ccc(NS(=O)(=O)Cc3ccc(Cl)cc3)cc2)n[nH]c1Nc1cccc(C(F)(F)F)n1 [US20250074891, Compound 60] |
